Measured values published in ChEMBL document CHEMBL1154198, “Chemical genetics of Plasmodium falciparum” (Nature, 2010).

What was measured:
Plasmodium falciparum [1] = assay: ST_JUDE: Plasmodium falciparum 3D7 EC50 (uM) as measured by SYBR green dye; format: functional, organism-based
Plasmodium falciparum [2] = assay: ST_JUDE: Plasmodium falciparum K1 EC50 (uM) as measured by SYBR green dye; format: functional, organism-based

Structure (SMILES)	EC50 (Plasmodium falciparum [1])	EC50 (Plasmodium falciparum [2])
Oc1cccc(/C=C/c2ccc3cccc(O)c3n2)c1	> 15 µM	5.88 µM
Cc1cc(C)c(S(=O)(=O)N(C)CC(=O)Nc2cccc(C(F)(F)F)c2)c(C)c1	> 15 µM	> 15 µM
CCOCCCNC(=O)c1cc2c(-c3cccc(OC)c3)nn(C)c2s1	> 15 µM	> 15 µM
CCS(=O)(=O)c1ccc(OC)c(/N=N/c2ccc(O)c3ncccc23)c1	4.96 µM	> 15 µM
Cc1ccc(N(CC(=O)NCCSc2ccc(Cl)cc2)S(=O)(=O)c2ccc(F)cc2)cc1	> 15 µM	> 15 µM
CCC1=[N+](C)c2cccc3cccc(c23)N1C	5.13 µM	4.41 µM
CCOc1cccc(-c2cc(C(=O)Nc3cc(C)ccn3)c3ccccc3n2)c1	> 15 µM	> 15 µM
Cc1nc2nc(NCc3cccc(Br)c3)nn2c(O)c1C	> 15 µM	> 15 µM
COc1cccc(C2C(C(=O)Nc3ccccc3C)=C(C)Nc3nnnn32)c1 (stereo not given)	> 15 µM	> 15 µM
COc1ccc2nc(N(Cc3cccnc3)C(=O)Cc3ccccc3)sc2c1	5.44 µM	3.67 µM
Cc1nc2sc(C(c3ccc(Cl)c(Cl)c3)N3CCN(C)CC3)c(O)n2n1 (stereo not given)	> 15 µM	> 15 µM
O=C(Nc1nc(-c2ccccn2)cs1)c1ccccc1Br	4.53 µM	2.05 µM
OCCNc1nc(Nc2ccc(Cl)c(Cl)c2)nc2ccccc12	> 15 µM	4.32 µM
COc1cc(C(=O)NCC(C)Oc2cccc(CN(C)Cc3cscn3)c2)cc(OC)c1OC (stereo not given)	> 15 µM	> 15 µM
Oc1c2c(nc3cc(-c4ccc(Br)cc4)nn13)CCCC2	> 15 µM	0.632 µM

Stronger by EC50 (Plasmodium falciparum [1]), values ahead:

EC50 (Plasmodium falciparum [1])	EC50 (Plasmodium falciparum [2])	Structure (SMILES)
3.57 µM	4.14 µM	CC(=O)NC1=NN(C(C)=O)C(C)(c2cccc(NC(C)=O)c2)S1 (stereo not given)
0.825 µM	0.827 µM	Cc1ccc([N+](=O)[O-])cc1NC(=O)c1cc2ccccc2cc1O
2.07 µM	1.45 µM	C=CCN1C(=O)c2[nH]nc(-c3c(C)cc(C)cc3O)c2C1c1ccc(OC)cc1 (stereo not given)
2.95 µM	3.88 µM	CCOc1ccc(NC(=O)C2c3ccccc3C(=O)N(C3CCCC3)C2c2cccs2)cc1 (stereo not given)
0.13 µM	0.2 µM	CSc1cccc(NC(=O)C2c3ccccc3C(=O)N(CC(C)C)C2c2cccs2)c1 (stereo not given)
0.835 µM	0.465 µM	CCCCCCCCCn1ccc(=N)cc1
1.08 µM	0.607 µM	C#CC[n+]1ccn2cccc2c1C
3.72 µM	3.57 µM	O=C(Nc1ccc(Cl)cc1)Nc1ccc(F)c(Cl)c1
3.76 µM	3.44 µM	Oc1c(CN2CCN(c3ccccc3F)CC2)cc(Br)c2cccnc12
1.66 µM	0.977 µM	COc1ccc(C2CC(=O)C3=C(C2)NC(=O)CC3c2ccc(O)cc2)cc1OC (stereo not given)
2.56 µM	> 15 µM	O=C(Nc1ccc(-c2nc3ccccc3[nH]2)cc1)[C@H](Cc1ccccc1)N1Cc2ccccc2C1=O
4.14 µM	> 15 µM	COCC(C)Oc1cccc(CN(Cc2ccncc2)C(=O)/C=C/c2cccc(F)c2)c1 (stereo not given)
2.51 µM	3.55 µM	CCOc1cc(O)c(-c2[nH]nc(C)c2Oc2ccc(F)cc2)cc1CC
1.2 µM	5.8 µM	Cc1cc(N2CCN(C)CC2)nc2ccc(NC(=S)NC3CCN(Cc4ccccc4)CC3)cc12
1.32 µM	> 15 µM	CC1CC(C)CN(C(=O)c2ccc(Cl)cc2Cl)C1 (stereo not given)
1.95 µM	6.27 µM	CC(=O)Nc1ccc(S(=O)(=O)Nc2ccc(Nc3nc(C)cc(N(C)C)n3)cc2)cc1
1.89 µM	1.65 µM	NNC(=O)CNC(c1ccccc1)c1cc(Br)ccc1NC(=O)c1ccccc1Br (stereo not given)
3.97 µM	11.8 µM	COc1ccccc1Nc1nc(NCc2ccccc2)c2ccccc2n1
0.49 µM	0.538 µM	CCOc1ccc(-c2nonc2NC(=O)c2ccccc2Cl)cc1OCC
1.62 µM	2.07 µM	CC1Cc2nc(SCC(=O)Nc3cccc(F)c3)n(C)c(=O)c2S1 (stereo not given)
